Patent publication US5723103A, “Substituted benzamides and radioligand analogs and methods of use” (Vanderbilt University, priority 1994, dated 1998)
Where two headings read alike, the source gives them in different places.

What was measured:
[1] = test system: 5-HT-3 receptor; details: literature, cited from earlier work
[2] = test system: animal behavioral models; details: literature; cited from earlier work
[3] = test system: drug-induced anxiety; details: literature; cited from earlier work
[4] = test system: emesis; details: literature; cited from earlier work
[5] = molecular target: T1, 5-HT-3 receptor (Rattus norvegicus, UniProt P35563)
T1 sequence (P35563 24-483): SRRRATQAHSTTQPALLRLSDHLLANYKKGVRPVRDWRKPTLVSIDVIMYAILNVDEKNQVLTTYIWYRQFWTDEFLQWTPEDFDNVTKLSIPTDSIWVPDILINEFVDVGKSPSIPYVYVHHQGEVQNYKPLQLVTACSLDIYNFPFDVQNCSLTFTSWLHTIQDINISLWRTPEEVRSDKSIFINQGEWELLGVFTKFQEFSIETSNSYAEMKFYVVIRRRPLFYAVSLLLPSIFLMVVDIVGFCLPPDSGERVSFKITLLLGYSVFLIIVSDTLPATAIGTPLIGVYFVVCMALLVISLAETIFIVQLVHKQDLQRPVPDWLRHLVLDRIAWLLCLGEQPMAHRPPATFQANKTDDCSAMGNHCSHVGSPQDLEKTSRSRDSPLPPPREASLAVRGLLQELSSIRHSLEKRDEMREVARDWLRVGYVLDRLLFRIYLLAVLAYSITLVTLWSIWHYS
Protocol: Evaluation of the compounds of the present invention was performed by incubating the radiolabeled agent with tissue homogenates known to contain these receptors. By inhibiting the binding with various concentrations of competing ligands the relative potencies of unlabeled analogs were determined. The apparent lipophilicities of the compounds of the invention were estimated from the retention times in reverse-phase HPLC at pH 7.4.

[6] = Apparent lipophilicity from reverse-phase HPLC at pH 7.4; format: physicochemical; details: not told
Text: (b) Extrapolated reverse phase capacity factors in MOPS buffer at pH 7.4.

[7] = molecular target: T1, 5-HT-3 receptor; format: binding; set-up: from tissue; host or cells: rat entorhinal cortex homogenate / membranes; details: rat entorhinal cortex
Text: In all FIGS. 1-3, triangles represent total binding, open circles represent non-specific binding, and darkened circles represent specific binding.

[8] = Ki, displacement of 0.64 nM [^125 I]-4 binding, Table 3, rat entorhinal cortex homogenate, HEPES buffer, nine concentrations 0.3 to 300 nM, triplicates
[9] = extrapolated reverse phase capacity factors in MOPS buffer, read-out: log Papp (apparent lipophilicity)

Structure (SMILES)	chromatographic logD [6, 9]	also measured
COc1cc(N)c(Cl)cc1C(=O)N[C@H]1CN2CCC1CC2 [(R)-zacopride, 5-chloro-4-amino-2-methoxy-N-(3-quinuclidinyl)benzamide]		affinity for the 5-HT-3 receptor relative to (S)-zacopride [1]: ten times lower affinity; cognitive-enhancing properties [2]: shows cognitive-enhancing properties; block of drug-induced anxiety [3]: able to block drug-induced anxiety
COc1cc(N)c(Cl)cc1C(=O)N[C@@H]1CN2CCC1CC2 [(S)-zacopride, 5-chloro-4-amino-2-methoxy-N-(3-quinuclidinyl)benzamide]		Ki ([1]; (S)-form of zacopride): 0.3 nM; antiemetic activity [4]: effective antiemetic agent; block of drug-induced anxiety [3]: inactive; Ki [5, 8]: 0.38 nM
CCCOc1ccc(I)cc1C(=O)N[C@@H]1CN2CCC1CC2 [TDP 9l7]	2.81	
COc1ccc(I)cc1C(=O)N[C@@H]1CN2CCC1CC2 [TDP 915]	2.15	
CCOc1ccc(I)cc1C(=O)N[C@@H]1CN2CCC1CC2 [TDP 916]	2.38	
C=CCOc1ccc(I)cc1C(=O)N[C@@H]1CN2CCC1CC2 [TDP 918]	2.76	
CC(C)Oc1ccc(I)cc1C(=O)N[C@@H]1CN2CCC1CC2 [TDP 919]	2.52	
O=C(N[C@@H]1CN2CCC1CC2)c1cc(I)ccc1OCCF [TDP 920]	2.15	
O=C(N[C@@H]1CN2CCC1CC2)c1cc(I)ccc1OCCCF [TDP 921]	2.44	
COc1ccc(Br)cc1C(=O)N[C@@H]1CN2CCC1CC2 [TDP 922]	2.02	
COc1cc(Br)cc(C(=O)N[C@@H]2CN3CCC2CC3)c1OC [TDP 923]	1.74	
CCOc1cc(Br)cc(C(=O)N[C@@H]2CN3CCC2CC3)c1OC [TDP 924]	2.14	
COc1cc(I)cc(C(=O)N[C@@H]2CN3CCC2CC3)c1OC [TDP 960]	1.87	Ki [5, 8]: 1.35 nM
COc1cc(Cl)cc(C(=O)N[C@@H]2CN3CCC2CC3)c1OC/C=C/I [TDP 984]	2.58	
COc1cc(I)cc(C(=O)N[C@H]2CN3CCC2CC3)c1OC [TDP 991, (R)-N-[3-1-Azabicyclo [2.2.2.]octyl]-5-iodo-2,3-dimethoxy-benzamide]	1.87	Ki [5, 8]: 19 nM
COc1cc(Cl)cc(C(=O)N[C@@H]2CN3CCC2CC3)c1OCCF [TDP 994]	1.58	

Structure (SMILES)	chromatographic logD [6, 9]	also measured
COc1c(OCCF)cc(Cl)cc1C(=O)N[C@@H]1CN2CCC1CC2 [TDP 999]	1.7	
CCOc1c(OC)cc(I)cc1C(=O)N[C@@H]1CN2CCC1CC2 [TDP 1022]	2.19	
COc1c(I)cc(Cl)cc1C(=O)N[C@@H]1CN2CCC1CC2 [TDP 1040]		chromatographic logD [6]: 2.34
C=CCOc1c(I)cc(Cl)cc1C(=O)N[C@@H]1CN2CCC1CC2 [TDP 1046]	2.63	
O=C(N[C@@H]1CN2CCC1CC2)c1cc(Cl)cc(I)c1OCCCF [TDP 1050]	2.38	
C#CCOc1c(I)cc(Cl)cc1C(=O)N[C@@H]1CN2CCC1CC2 [TDP 1053]	2.57	
O=C(N[C@@H]1CN2CCC1CC2)c1cc(Cl)cc(I)c1OCCF [TDP 1056]	1.95	
CCOc1c(I)cc(Cl)cc1C(=O)N[C@@H]1CN2CCC1CC2 [TDP 1059]	2.47	
CC(C)Oc1c(I)cc(Cl)cc1C(=O)N[C@@H]1CN2CCC1CC2 [TDP 1062]	2.45	
CCCOc1c(I)cc(Cl)cc1C(=O)N[C@@H]1CN2CCC1CC2 [TDP 1065]	2.7	
COc1ccc(F)cc1C(=O)N[C@@H]1CN2CCC1CC2 [TDP 1087]	1.34	
COc1cc([125I])cc(C(=O)N[C@@H]2CN3CCC2CC3)c1OC [[^125 I]-4, (S)-N-[3-(1-azabicyclo[2.2.2]octyl)]-2,3-dimethoxy-5-[^125 I]iodobenzamide]		Kd [7]: 1.5 nM
CN1[C@@H]2CC[C@H]1C[C@@H](OC(=O)c1cc(Cl)cc(Cl)c1)C2 [bemestron]		Ki [5, 8]: 18.3 nM
CCN1CCC[C@H]1CNC(=O)c1cc(I)cc(OC)c1OC [epidepride]		Ki [5]: 1040 nM
c1ccc2nc(N3CCNCC3)ccc2c1 [quipazine]		Ki [5, 8]: 0.48 nM
